Measured values from patent publication US11465984B2, “Compound having ERK kinase inhibitory activity and use thereof” (SHANGHAI HAIHE PHARMACEUTICAL CO., LTD., priority 2017, dated 2022).

Tests used:
[1] = Chemical stability assay in solutions with various pH values (UPLC); assay type: physicochemical
Excerpt: 1. Detection Means and Conditions Used in the Chemical Stability Assay
• Detection method: Ultra-high performance liquid chromatography (UPLC) Chromatographic Conditions: • System: Ultra-high performance liquid chromatography system including pump, automatic sample injector, detector, and column oven • Column Waters Acquity UPLC BEH C18 (2.1*50 mm, 1.7 μm) • Detector: PDA detector • Detection wavelength: 225 nm • Mobile phase: A: 0.05% trifluoroacetic acid in water • B: acetonitrile • Gradient:
• Flow rate: 0.4 ml/min • Column temperature: 40° C. • Injecion volume: 2 μl 2. Study on the Chemical Stability of the Compounds of the Invention (1). Formulation of Solutions of Test Compound P9
Compound P9 was formulated as solutions in different buffer systems at a concentration of 0.2 mg/ml using PEG400 as cosolvent. These solutions were used for chemical stability study. The solutions with various pH values were formulated as follows: […]
Conditions for the chemical stability assay: the solutions of Compound P9 with various pH values were stored at 37° C. for 24 h. The content of Compound P9 was determined by HPLC at 0, 4, 8, 12, 14 and 24 h. […]

[2] = system: human melanoma cell line A375; test: In vitro cell study: proliferation of A375 cells (SRB); assay type: cell-based; settings: A-375, 72 h incubation, read-out: IC50 against A375 cell
Procedure: The inhibitory activity of Compound P9 of the invention and the representative compounds of WO2017/114510A1 on the proliferation of human melanoma cell line A375 (IC50 value) was determined in this Example.
• Cell: human melanoma cell line A375 (CRL-1619™, ATCC) • Detection reagent: sulforhodamine B SRB (S9012, Sigma) • Microplate: 96 well microplate (3599, Corning) • Microplate reader: full-wavelength microplate reader (SpectraMax 190, Molecular Devices) (2). Assay Protocol:
Cells in logarithmic growth phase were seeded at appropriate density (3500/well) into 96-well microplates in the volume of 90 μL per well. After incubation in a CO2 incubator at 37° C. overnight, 10 μL of the compound at various concentrations or saline for medium control was added in triplicate and incubated for 72 h, and a blank well was set. […] The optical density (OD value) at the wavelength of 560 nm was measured using a full-wavelength microplate reader SpectraMax 190. The inhibition rate of the drug on the growth of the tumor cells was calculated according to the following formula: […]
The IC50 values were obtained by regression with four-parameter method using the software attached to the microplate reader. […]

[3] = Pharmacokinetic study, single IV and PO administration to ICR mice; assay type: in vivo
Procedure: The pharmacokinetic parameters of Compound P9 of the invention and the representative compounds of WO2017/114510A1 in mice were determined in this Example.
(1) In Vivo Pharmacokinetics Protocol for Single Intravenous (IV) and Oral (PO) Administration to ICR Mice
The concentration during formulation of test substances was calculated on the basis of pure free base.
The test substance was accurately weighed, and added with the excipients (5% DMSO+5% Solutol+90% saline) in the specified amounts. After complete dissolution, the dosing solution for intravenous injection was obtained at the concentration of 0.2 mg/mL.
The test compound was accurately weighed, and added with the excipients (0.4% methylcellulose (viscosity: 400 cps)) in the specified amount. After sufficiently mixing, the dosing solution for oral administration was obtained at the concentration of 1 mg/mL.
Forty male SPF grade ICR mice were purchased from Shanghai Xipuer-Bikai Laboratory Animal Co., Ltd., and 30 normal healthy ICR mice of them passed the physical examination and were used in this study. Animal weight: 20.12-25.56 g.
Blood was collected through the orbit or through cardiac puncture after carbon dioxide (CO2) euthanasia. About 0.20 milliliter (mL) of blood was collected for each sample with heparin sodium as anticoagulant agent. The samples were placed on ice after collection. […]
The biological samples of the test substances were analyzed by LC-MS/MS. […]
The pharmacokinetic parameters were calculated from the blood concentration data of the drug, using WinNonlin 7.0 to provide the parameters such as AUC0-t, AUC0-∞, MRT0-∞, Cmax, Tmax, and T1/2, and the average and standard deviation thereof.
For those samples with concentrations below the lower limit of quantitation, when calculating the pharmacokinetic parameters, samples collected before Cmax should be calculated as zero, and samples collected at the points after Cmax should be calculated as being below the limit of qualitification (BLQ).

Cn1nccc1Nc1cc(-c2cc(F)c3c(c2)CCN3C(=O)Cc2cccnc2Cl)ccn1 [Example P9, 2-(2-chloropyridin-3-yl)-1-(7-fluoro-5-(2-((1-methyl-1H-pyrazol-5-yl)amino)pyridin-4-yl)indolin-1-yl)ethan-1-one]
Percentage (%) of the peak area of the total impurity ([1]; solution pH 2.0, 37° C., 0 h): 0.84%
Percentage (%) relative to the peak area of the compound at the original point ([1]; solution pH 2.0, 37° C., 0 h): 100.0%
Percentage (%) of the peak area of the total impurity ([1]; solution pH 2.0, 37° C., 4 h): 0.85%
Percentage (%) relative to the peak area of the compound at the original point ([1]; solution pH 2.0, 37° C., 4 h): 100.1%
Percentage (%) of the peak area of the total impurity ([1]; solution pH 2.0, 37° C., 8 h): 0.85%
Percentage (%) relative to the peak area of the compound at the original point ([1]; solution pH 2.0, 37° C., 8 h): 101.0%
Percentage (%) of the peak area of the total impurity ([1]; solution pH 2.0, 37° C., 12 h): 0.85%
Percentage (%) relative to the peak area of the compound at the original point ([1]; solution pH 2.0, 37° C., 12 h): 100.6%
Percentage (%) of the peak area of the total impurity ([1]; solution pH 2.0, 37° C., 14 h): 0.84%
Percentage (%) relative to the peak area of the compound at the original point ([1]; solution pH 2.0, 37° C., 14 h): 100.6%
Percentage (%) of the peak area of the total impurity ([1]; solution pH 2.0, 37° C., 24 h): 0.85%
Percentage (%) relative to the peak area of the compound at the original point ([1]; solution pH 2.0, 37° C., 24 h): 101.0%
Percentage (%) of the peak area of the total impurity ([1]; solution pH 6.8, 37° C., 0 h): 0.75%
Percentage (%) relative to the peak area of the compound at the original point ([1]; solution pH 6.8, 37° C., 0 h): 100.0%
Percentage (%) of the peak area of the total impurity ([1]; solution pH 6.8, 37° C., 4 h): 0.69%
Percentage (%) relative to the peak area of the compound at the original point ([1]; solution pH 6.8, 37° C., 4 h): 101.0%
Percentage (%) of the peak area of the total impurity ([1]; solution pH 6.8, 37° C., 8 h): 0.71%
Percentage (%) relative to the peak area of the compound at the original point ([1]; solution pH 6.8, 37° C., 8 h): 101.4%
Percentage (%) of the peak area of the total impurity ([1]; solution pH 6.8, 37° C., 12 h): 0.71%
Percentage (%) relative to the peak area of the compound at the original point ([1]; solution pH 6.8, 37° C., 12 h): 101.6%
Percentage (%) of the peak area of the total impurity ([1]; solution pH 6.8, 37° C., 14 h): 0.68%
Percentage (%) relative to the peak area of the compound at the original point ([1]; solution pH 6.8, 37° C., 14 h): 100.8%
Percentage (%) of the peak area of the total impurity ([1]; solution pH 6.8, 37° C., 24 h): 0.68%
Percentage (%) relative to the peak area of the compound at the original point ([1]; solution pH 6.8, 37° C., 24 h): 101.7%
Percentage (%) of the peak area of the total impurity ([1]; solution pH 7.4, 37° C., 0 h): 0.72%
Percentage (%) relative to the peak area of the compound at the original point ([1]; solution pH 7.4, 37° C., 0 h): 100.0%
Percentage (%) of the peak area of the total impurity ([1]; solution pH 7.4, 37° C., 4 h): 0.67%
Percentage (%) relative to the peak area of the compound at the original point ([1]; solution pH 7.4, 37° C., 4 h): 100.3%
Percentage (%) of the peak area of the total impurity ([1]; solution pH 7.4, 37° C., 8 h): 0.65%
Percentage (%) relative to the peak area of the compound at the original point ([1]; solution pH 7.4, 37° C., 8 h): 101.4%
Percentage (%) of the peak area of the total impurity ([1]; solution pH 7.4, 37° C., 12 h): 0.67%
Percentage (%) relative to the peak area of the compound at the original point ([1]; solution pH 7.4, 37° C., 12 h): 100.9%
Percentage (%) of the peak area of the total impurity ([1]; solution pH 7.4, 37° C., 14 h): 0.71%
Percentage (%) relative to the peak area of the compound at the original point ([1]; solution pH 7.4, 37° C., 14 h): 101.3%
Percentage (%) of the peak area of the total impurity ([1]; solution pH 7.4, 37° C., 24 h): 0.74%
Percentage (%) relative to the peak area of the compound at the original point ([1]; solution pH 7.4, 37° C., 24 h): 101.1%
chemical stability (conclusion in words) ([1]; storage in solutions of various pH at 37° C. for 24 h): good chemical stability
IC50 [2]: 363 nM
CLz [3]: CLz/(L/hr/kg): 0.36
F ([3]; po): F/(%, po): 60.55
nAUC0-t ([3]; po): nAUC0-t/(ng · h/ mL, po): 1696.3
